The subject of series [1] is colorectal tumorigenesis. Briefly: APCmin/+ spontaneous colorectal cancer mouse model. The settings on record: aspirin 400 mg/L drinking water; microbiota-depleted APCmin/+ mice. The class given is in vivo. The protocol:
Drinking water was supplemented with antibiotics cocktail (0.2 g/L of ampicillin, neomycin and metronidazole and 0.1 g/L of vancomycin) for two weeks, every other two weeks, till the end of experiment, to deplete the gut microbiota. Aspirin (Byer, Leverkusen, Germany), freshly prepared (400 mg/L) in drinking water twice a week, was continuously given to mice through the entire experiment. […] At day 80 for AOM/DSS model and day 84 for APC^min/+ model, mice were harvested. The intestines were longitudinally opened along the mesenteric margin and flushed with ice-cold phosphate-buffered saline (PBS). Solid neoplastic lesions were carefully counted for tumor number and measured for tumor size (average diameter, (major diameter+minor diameter)/2) and tumor load (sum of average diameters of all tumors). The intestinal tissues were fixed in 10% neutral buffered formalin and embedded in paraffin. Sections (4 μm) were stained with hematoxylin and eosin for histological examination by a pathologist (A/Professor Anthony W H Chan) who was blind to the experimental design. The remaining tissues were snap-frozen in liquid nitrogen, and stored at −80° C. until use. All procedures adhered to the guidelines approved by the Animal Experimentation Ethics Committee of the Chinese University of Hong Kong.

For series [2], the system named is colorectal tumorigenesis. Briefly: AOM/DSS-treated germ-free and conventionalized germ-free Kunming mice. The class given is in vivo. As for the experimental part:
Germ-free wild-type Kunming mice (10 weeks old) in male gender were treated with AOM and DSS to induce intestinal neoplasia. The treatment regimens of AOM, DSS and aspirin were the same as described for conventional mice. In a separate experiment, to determine the direct effects of microbiota on chemoprevention, germ-free mice were conventionalized after their cages were placed out of germ-free environment at 10 weeks old prior to treatment. The remaining procedures performed were the same as described for conventional mice. Germ-free mice were bred at the Department of Laboratory Animal Science, The Third Military Medical University, Chongqing, China. The germ-free animal experiments were approved by the Animal Experimentation Ethics Committee of The Third Military Medical University.

The subject of a further series is fecal bacteria. Format: in vitro ADME, mice. The protocol: The levels of aspirin from plasma, gut luminal contents and culture medium was determined by ultra-high-performance liquid chromatography-quadrupole time-of-flight mass spectrometry (UHPLC-Q-TOF/MS). The detection sample was mixed in 5 μL 4-[…] (0.39 mg/mL, internal standard). Aspirin and salicylic acid were extracted twice by 400 μL cold methanol. Supernatants were dried under nitrogen stream and detected by UHPLC (1290 Infinity LC, Agilent, Santa Clara, Calif.) and MS (6550 Q-TOF/MS, Agilent, CA). The primary metabolite of aspirin, salicylic acid, in culture medium was examined by Trinder's method^26. Equal number of fecal bacteria (estimated by optical density (OD) 600) from APC^min/+ mice with and without antibiotic treatment were inoculated into the brain heart infusion (BHI) medium (Thermo Fisher Scientific) containing aspirin (10 mM). After 2-hour co-incubation at 37° C., the level of salicylic acid in medium was measured by Trinder's method^26. Briefly, the supernatant of medium was mixed with a solution containing 40 g ferric nitrate, 40 g mercuric chloride and 120 mL 1N HCL in 1 L ddH2O at 1:5 ratio. Salicylic acid was quantified by absorbance value at 540 nm. The plasma and luminal content levels of salicylic acid were evaluated by UHPLC-Q-TOF/MS. Mouse feces were mixed with cooked meat (CM) medium (Thermo Fisher Scientific). […]

Series [3] in a line: Plasma and luminal aspirin/salicylic acid level in L. sphaericus-monocolonized germ-free mice. The class given is in vivo. As to conditions: for plasma level of aspirin: L. sphaericus-monocolonized germ-free mice compared with control germ-free mice. The protocol:
The levels of aspirin from plasma, gut luminal contents and culture medium was determined by ultra-high-performance liquid chromatography-quadrupole time-of-flight mass spectrometry (UHPLC-Q-TOF/MS). The detection sample was mixed in 5 μL 4-C1-phenylalanine (0.39 mg/mL, internal standard). Aspirin and salicylic acid were extracted twice by 400 μL cold methanol. Supernatants were dried under nitrogen stream and detected by UHPLC (1290 Infinity LC, Agilent, Santa Clara, Calif.) and MS (6550 Q-TOF/MS, Agilent, CA).
The primary metabolite of aspirin, salicylic acid, in culture medium was examined by Trinder's method^26. Equal number of fecal bacteria (estimated by optical density (OD) 600) from APC^min/+ mice with and without antibiotic treatment were inoculated into the brain heart infusion (BHI) medium (Thermo Fisher Scientific) containing aspirin (10 mM). After 2-hour co-incubation at 37° C., the level of salicylic acid in medium was measured by Trinder's method^26. Briefly, the supernatant of medium was mixed with a solution containing 40 g ferric nitrate, 40 g mercuric chloride and 120 mL 1N HCL in 1 L ddH2O at 1:5 ratio. Salicylic acid was quantified by absorbance value at 540 nm. The plasma and luminal content levels of salicylic acid were evaluated by UHPLC-Q-TOF/MS.
In order to determine whether L. sphaericus can degrade aspirin and impacts its bioavailability in vivo, germ-free mice were gavaged with L. sphaericus (1×10^8 CFU) once/day for three days, followed by oral administration of aspirin (10 mg/kg) (FIG. 6C). […] Taken together, these findings from in vitro and in vivo experiments indicate that L. sphaericus causes aspirin degradation in the gut, thereby reducing aspirin bioavailability.

For series [4] the following is noted: reference 24, cited from earlier work.
Setting [5] is: AOM/DSS-treated conventionalized germ-free mice.
The mark [6] stands for this setting: AOM/DSS-treated germ-free mice, relative to untreated germ-free control mice.

In the case of `CC(=O)Oc1ccccc1C(=O)O` [aspirin, acetylsalicylic acid], in the series with colorectal tumorigenesis [1], the colorectal tumor load result was “significantly decreased” and the colorectal tumor number result was “significantly decreased”. Besides, in the series with colorectal tumorigenesis [2] (setting [5]), the “suppressive effect on tumorigenesis (tumor load)” value is reported as “impaired by conventionalization” and the “suppressive effect on tumorigenesis (tumor number)” value is “impaired by conventionalization”. In the series with colorectal tumorigenesis [2] (setting [6]), the colorectal tumor load result was “significantly reduced” and the colorectal tumor number entry is given as “significantly reduced”. In the series on fecal bacteria, the “salicylic acid level in the medium (UHPLC-Q-TOF/MS)” value is “not significantly different”. For the same compound, the “plasma level of aspirin” value in series [3] (0.5 h post oral aspirin 10 mg/kg) is “significantly reduced”. Besides, in series [3] (1 h post oral aspirin 10 mg/kg), the “plasma level of aspirin” value is “significantly reduced”. For the same compound, in series [3] (3 h post oral aspirin 10 mg/kg, L. sphaericus-monocolonized mice compared to control germ-free mice), the “level of salicylic acid in the colon luminal content” value is recorded as “significantly reduced”. In addition, the “plasma level of salicylic acid” value in series [3] (3 h post oral aspirin 10 mg/kg, L. sphaericus-monocolonized mice vs control germ-free mice) is listed as “significantly lowered”. In series [4] (after oral administration), the “level in circulation, effect of gut microbiota” value is on record as “reducing its level in circulation”. Moreover, in series [4] (intravenous administration), the “difference in blood levels of aspirin in rats with and without microbial depletion” value is on record as “abolished by intravenous administration”. Also, the “antithrombotic activity, effect of gut microbiota” value in series [4] (oral administration) is “reduced the antithrombotic activity”.

(Values after patent US12275995B2, “Lysinibacillus sphaericus and aspirin chemoprevention of colorectal cancer” (priority 2019, dated 2025).)
